Assay: In vitro aerosolization performance of MDI formulations (Next Generation Impactor, HPLC)
Assay type: physicochemical
Settings: for FPFED (%) fine particle fraction of the emitted dose / Fine particle Dose (μg ± S.D.) / MMAD ± GSD / Emitted Dose (μg ± S.D.): NGI at 30 L.min^−1; for MMAD ± GSD: in µm (unit assumed); for Emitted Dose (μg ± S.D.): nominal dose salmeterol xinafoate 25 μg, fluticasone propionate 125 μg
Procedure: The nominal dose of salmeterol xinafoate was 25 μg and the nominal dose of fluticasone propionate was 125 μg.
A 100 mm×4.6 mm Ascentis Express […] column with a 2.7 μm particle size was used for the analysis.

[1] = combination MDI formulation in HFA-134a
[2] = combination MDI formulation in HFA-152a

CCC(=O)O[C@]1(C(=O)SCF)[C@H](C)C[C@H]2[C@@H]3C[C@H](F)C4=CC(=O)C=C[C@]4(C)[C@@]3(F)[C@@H](O)C[C@@]21C [Fluticasone Propionate, fluticasone propionate]
fine particle fractions of the emitted doses upon aerosolization, HFA-152a compared with HFA-134a (HFA-152a used as the propellant, versus HFA-134a (Tables 2 and 3)): significantly better | FPFED (%) fine particle fraction of the emitted dose [1]: 31.0% | Fine particle Dose (μg ± S.D.) [1]: 31.6 ± 3.3 µg | MMAD ± GSD [1]: 3.8 ± 2.5 | Emitted Dose (μg ± S.D.) [1]: 101.7 ± 8.7 µg | FPFED (%) fine particle fraction of the emitted dose [2]: 40.0% | Fine particle Dose (μg ± S.D.) [2]: 43.5 ± 3.4 µg | MMAD ± GSD [2]: 2.9 ± 2.1 | Emitted Dose (μg ± S.D.) [2]: 108.7 ± 1.1 µg
